Laboratory results as given in patent US4981788A, “Novel acetylpolyamine amidohydrolase” (Kyowa Hakko Kogyo Co., Ltd., priority 1987, dated 1991).
“Also recorded” adds a separate entry of the source. Where a name gives a salt, the structure may show the parent alone. Read-outs that look alike come from different tables or passages of the source.

Columns and labels:
[1] = target: T1, acetylpolyamine amidohydrolase (the present enzyme, product purified to homogeneity) (Mycoplana ramosa, UniProt Q48935); test: Effects of various compounds upon enzyme activity, product purified to homogeneity (Method 1); type: biochemical, Mycoplana bullata; details: for activity at 100 µM: read-out: Relative Activity (%) at 0.1 mM
T1 construct: novel acetylpolyamine amidohydrolase of the present invention accumulated within the grown cells; made in house; host or cells: Mycoplana (natural producer)
T1 sequence (Q48935 1-341): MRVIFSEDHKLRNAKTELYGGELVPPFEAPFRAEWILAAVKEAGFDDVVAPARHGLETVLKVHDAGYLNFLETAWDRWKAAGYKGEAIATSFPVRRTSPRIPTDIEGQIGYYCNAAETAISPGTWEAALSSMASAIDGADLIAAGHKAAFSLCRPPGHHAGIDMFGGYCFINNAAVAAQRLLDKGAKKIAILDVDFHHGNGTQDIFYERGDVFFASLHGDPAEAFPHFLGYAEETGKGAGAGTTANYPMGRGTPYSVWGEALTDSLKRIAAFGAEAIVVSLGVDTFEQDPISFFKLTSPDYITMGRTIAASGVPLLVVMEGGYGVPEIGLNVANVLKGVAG
Source text: [Method 1] (Standard assay)
In this standard method for measuring the activity of acetylpolyamine amidohydrolases, the enzyme being tested is allowed to react with acetylputrescine as substrate to produce putrescine, which is in turn oxidized with putrescine oxidase. Hydrogen peroxide thus formed is then subjected to oxidative condensation with phenol and 4-aminoantipyrine in the presence of horseradish peroxidase to form quinoneimine pigment. The rate of increase in the absorbance of a colored reaction solution at 500 nm is measured with a spectrophotometer.
(§1) The above reagents, (b) through (h), were put in a cuvette (d: 1.0 cm) and the mixture was preincubated at 37° C. for 2 minutes. The substrate solution (a) was then added and the resulting mixture was held at 37° C., absorbance at 500 nm was measured over a period of 3 to 5 minutes, and the change in absorbance per minute (ΔODsample) was determined from the linear portion of the plotted curve. For control, the same procedure as above was carried out, using distilled water as reference.
(§2) One unit of acetylpolyamine amidohydrolase is defined as its amount necessary to hydrolyze 1 μmole of acetylputrescine at 37° C. for one minute (or the amount necessary to form 0.5 μmole of quinoneimine pigment formed in the method for measuring the enzyme activity described above).
To 50 mM Tris-HCl buffer (pH 7.0) containing the present enzyme, was added each of the compounds being tested to a concentration of 0.1 mM or 1.0 mM. The mixture was incubated at 37° C. for 10 minutes, a sample solution was taken out, and its residual activity was measured according to the procedure described in [Method 1].

[2] = target: T2, acetylpolyamine amidohydrolase (the present enzyme, partially purified product) (Mycoplana ramosa, UniProt Q48935); test: Effects of inhibitors and metal ions, partially purified present enzyme; type: biochemical, Mycoplana bullata; details: for Inhibition of the present enzyme (in words): partially purified product; for inhibition at 1000 µM: read-out: Relative activity in presence of inhibitor/metal ion, the present enzyme
T2 construct: novel acetylpolyamine amidohydrolase of the present invention accumulated within the grown cells; made in house; host or cells: Mycoplana (natural producer; cells grown in culture)
T2 sequence (Q48935 1-341): T1 sequence (Q48935 1-341)
Experimental: Activity of the present enzyme (partially purified products) is measured according to the following procedure. That is, 0.1 ml of an enzyme solution is added to a reagent solution consisting of 1.5 ml of 0.1 M phosphate buffer (pH 7.0), 0.05 ml of 50 mM acetylpolyamine, 0.4 U of putrescine oxidase (when acetylputrescine, acetylcadaverine or acetylspermidine is used as substrate) or polyamine oxidase (when acetylspermidine or acetylspermine is used as substrate), 0.5 ml of 2.4 mM 4-aminoantipyrine, 0.5 ml of 42 mM phenol and 20 U of peroxidase. The mixture is incubated at 37° C., and the absorbance of quinoneimine pigment formed at 500 nm is measured.
The effects of various inhibitors and metal ions upon the present enzyme and the other known enzymes were examined using acetylputrescine as substrate.

[3] = test system: E1: Enzyme derived from Streptomyces avellaneus; details: concentration of 1mM; acetylputrescine as substrate; cited from earlier work
[4] = test system: E2: Enzyme derived from Arthrobacter sp.; details: concentration of 1mM; acetylputrescine as substrate; cited from earlier work
[5] = test system: E3: Enzyme derived from Micrococcus luteus; details: cited from earlier work
[6] = target: T1, acetylpolyamine amidohydrolase (the present enzyme, product purified to homogeneity); test: Enzyme activity on acetylpolyamine substrates, product purified to homogeneity (Method 2 / Method 3); type: biochemical, Mycoplana bullata; details: 37° C., phosphate and borate buffers, per substrate
Source text: [Method 2] (Assay when acetylputrescine, acetylcadaverine, N^1 -acetylspermidine and N^8 -acetylspermidine are used as substrate:)
The acetylpolyamine can be hydrolyzed by the acetylpolyamine amidohydrolase, as described in [Method 1], and the corresponding free polyamine thus formed is then oxidized by putrescine oxidase. Putrescine oxidase derived from Micrococcus rubens is known to have an activity upon putrescine, cadaverine and spermidine [Adachi, et al., Agric. Biol. Chem, 30, 1202 (1966)]. […] The actual analytical procedure is as described below.
as §1, with “added,” for “added”, “incubated” for “held”, “C. Absorbance” for “C., absorbance”
as §2
[Method 3] (Assay when acetylspermine is used as substrate:)
Acetylspermine is hydrolyzed by the action of acetylpolyamine amidohydrolase into free form of spermine. The free form of spermine can be oxidized by a polyamine oxidase derived from Aspergillus terreus to produce hydrogen peroxide. Two molar equivalents of hydrogen peroxide is formed from one molar equivalent of spermine. Thus, the enzyme activity can be measured by quantitative determination of the hydrogen peroxide according to the method described above. However, since the above polyamine oxidase also acts upon acetylspermine, it is impossible to exactly measure the activity of acetylpolyamine amidohydrolase by the standard assay. […] The actual procedure is described below.
Reagents (b) through (d) given in item (1) were put in a test tube and the mixture was preincubated at 37° C. for 2 minutes. The substrate solution (a) was then added, the resulting mixture was incubated at 37° C. for 10 minutes, and the reaction was stopped by addition of the termination (e). A sample solution (100 μl) was taken from the reaction mixture and subjected to HPLC as described above to separate free form of spermine from acetylspermine. Generally, acetylspermine is eluted at a position of 38 minutes after the start of elution and free form of spermine at a position of 41 minutes after the start of elution. A sample solution (200 μl), taken from the eluate containing free form of spermine, was mixed in a cuvette with reagents (a) through (e) given in item (2) above, the mixture was incubated at 37° C. for 10 minutes, and the absorbance at 755 nm was measured. For control, the same procedure as above was carried out using 200 μl of Elunt A in place of the sample solution, as reference.
The concentration of free form of spermine in the reaction mixture can be determined from a calibration curve previously prepared on the basis of aqueous soluitons of free form of spermine with different concentrations. If the concentration of free form of spermine contained in 150 μl of the reaction mixture is taken as P (mM), then the potency (A) for 1 ml of the enzyme solution can be expressed by the following equation: […]
The activities upon acetylputrescine, acetylcadaverine, N^1 -acetylspermidine and N^8 -acetylspermidine were measured by [Method 2] in a phosphate buffer (pH 9.0) at a substrate concentration of 0.833 mM, and the activity upon acetyl-spermine was measured by [Method 3] under the same conditions. […] Km values, determined from the Lineweaver-Burk plot, are also listed in the same table. […]

[7] = test system: E1: Enzyme derived from Streptomyces avellaneus (acetylpolyamine amidohydrolase); details: cited from earlier work
[8] = test system: E2: Enzyme derived from Arthrobacter sp. (acetylpolyamine amidohydrolase); details: pH 7.0, cited from earlier work
[9] = compound 0.1 mM, 50 mM Tris-HCl pH 7.0, 37° C., 10 minutes, residual activity
[10] = compound 1.0 mM, 50 mM Tris-HCl pH 7.0, 37° C., 10 minutes, residual activity
[11] = concentration of 1mM, acetylputrescine as substrate, no addition = 100%
[12] = concentration of 1mM, acetylputrescine as substrate
[13] = compound 1.0 mM, 50 mM Tris-HCl pH 7.0, 37° C., 10 minutes, residual activity, read-out: Relative Activity (%) at 1.0 mM

Row | Compound | Relative Activity (%) at 1.0 mM [1, 10] | Relative activity in presence of inhibitor/metal ion, the present enzyme [2, 11] | Relative activity in presence of inhibitor/metal ion, E1 [3] | Relative activity in presence of inhibitor/metal ion, E2 [4] | Relative activity in presence of inhibitor/metal ion, E3 [5, 12] | other results
1 | [Cl-].[Cl-].[Mg+2] [MgCl2] | 85% | – | – | – | – | Relative Activity (%) at 0.1 mM [1, 9]: 87%
2 | [Mg+2] [Mg^2+] | – | 97% | 104% | 112% | 99% | Inhibition of the present enzyme (in words) ([1]; purified to homogeneity): inhibited
3 | [Zn+2] [Zn^2+] | – | 100% | 3% | 32% | 4% | Inhibition of the present enzyme (in words) [2]: hardly inhibited; Inhibition of the present enzyme (in words) ([1]; purified to homogeneity): inhibited; also recorded: most remarkably
4 | Oc1cccc2cccnc12 [8-Hydroxyquinoline] | – | – | – | – | – | Relative activity in presence of inhibitor/metal ion, the present enzyme [2]: 3; Inhibition of the present enzyme (in words) [1]: considerably inhibited; Relative Activity (%) at 0.1 mM ([1]; pH 7): 57%; Relative Activity (%) at 1.0 mM ([1]; pH 7): 66%; Relative activity in presence of inhibitor/metal ion, E3 [5]: 98
5 | O=[N+]([O-])[O-].[Ag+] [AgNO3] | 41% | – | – | – | – | Relative Activity (%) at 0.1 mM [1, 9]: 107%; Inhibition of the present enzyme (in words) ([1]; purified to homogeneity): inhibited
6 | [Ni+2] [Ni^2+] | – | 81% | 3% | 55% | 33% | Inhibition of the present enzyme (in words) [2]: hardly inhibited
7 | c1ccc(-c2ccccn2)nc1 [a,a'-Dipyridyl] | – | – | – | – | – | activity at 1000 µM [1, 13]: 92%
8 | O=S(=O)(F)Cc1ccccc1 [Phenylmethanesulfonyl fluoride] | 90% | – | – | – | – | Relative Activity (%) at 0.1 mM [1, 9]: 86%; Inhibition of the present enzyme (in words) ([1]; purified to homogeneity): slightly inhibited
9 | O=C(O)c1cc[c]([Hg][Cl])cc1 [pCMB, -p(Chloromercuri)benzoic acid] | 90% | 4% | 0% | 8% | 98% | Relative Activity (%) at 0.1 mM [1, 9]: 107%; Inhibition of the present enzyme (in words) ([1]; purified to homogeneity): slightly inhibited
10 | NO [Hydroxylamine] | – | 24% | – | – | – | –
11 | [Mn+2] [Mn^2+] | – | 124% | 82% | 101% | 50% | –
12 | [N-]=[N+]=[N-].[Na+] [NaN3] | 95% | 90% | 93% | 99% | 98% | –
13 | O=C(O)CN(CCN(CC(=O)O)CC(=O)O)CC(=O)O [EDTA · 2Na] | – | – | – | – | – | Inhibition of the present enzyme (in words) [1]: no inhibitory action; activity at 1000 µM ([1]; pH 7, read-out: Relative Activity (%) at 1.0 mM): 97%
14 | [Cl-].[Cl-].[Zn+2] [ZnCl2] | 22% | – | – | – | – | Relative Activity (%) at 0.1 mM [1, 9]: 1%
15 | [Cl][Ni][Cl] [NiCl2] | 90% | – | – | – | – | –
16 | c1cnc2c(c1)ccc1cccnc12 [o-Phenanthroline] | – | – | 14% | 94% | 33% | inhibition at 1000 µM [2, 11]: 68%; activity at 1000 µM [1, 13]: 95%; Inhibition of the present enzyme (in words) ([1]; purified to homogeneity): no inhibitory action
17 | [Cl-].[Cl-].[Co+2] [CoCl2] | 105% | – | – | – | – | –
18 | [Cu+2] [Cu^2+] | – | 99% | – | – | 26% | –
19 | Acetylspermidine | – | – | – | – | – | Optimum pH [6]: 9; Relative activity, E1 ([7]; pH 7.0, activity against acetylputrescine defined as 100): 9.1%; Km ([7]; pH 7.0, read-out: Km, E1): 1100 µM; Relative activity, St. avellaneus enzyme ([7]; reported reference data in Table 5, acetylputrescine = 100): 9.1%; Km ([7]; reported reference data in Table 5, read-out: Km, St. avellaneus enzyme): 1100 µM; Relative activity, E2 ([8]; activity against acetylputrescine defined as 100): 30%; Km [8]: 500 µM
20 | CCN(CC)C(=S)S [DDC, Diethyldithiocarbamate] | – | – | – | – | – | inhibition at 1000 µM [2, 11]: 0%; activity at 100 µM [1, 9]: 93%; activity at 1000 µM [1, 13]: 94%
21 | NNC(N)=O [Semicarbazide hydrochloride] | – | – | – | – | – | activity at 100 µM [1, 9]: 103%; activity at 1000 µM [1, 13]: 91%
